Measurements: PubChem BioAssay (NCI)
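Test compounds were applied to cells in 96-well plates for 48 hours at 5 doses. At the TGI there is no net growth.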

Columns and labels:
Assay in all cases: growth of human tumour cells (NCI), 48 h
786-0 renal = system: 786-0 renal
HS 578T breast = system: HS 578T breast
HT29 colon = system: HT29 colon
MDA-N = system: MDA-N
NCI-H226 lung = system: NCI-H226 lung
NCI-H522 lung = system: NCI-H522 lung
OVCAR-5 ovarian = system: OVCAR-5 ovarian
OVCAR-8 ovarian = system: OVCAR-8 ovarian
RPMI-8226 leukemia = system: RPMI-8226 leukemia
SF-268 CNS = system: SF-268 CNS
SF-539 CNS = system: SF-539 CNS

| SMILES | TGI (786-0 renal) [µM] | TGI (HS 578T breast) [µM] | TGI (HT29 colon) [µM] | TGI (MDA-N) [µM] | TGI (NCI-H226 lung) [µM] | TGI (NCI-H522 lung) [µM] | TGI (OVCAR-5 ovarian) [µM] | TGI (OVCAR-8 ovarian) [µM] | TGI (RPMI-8226 leukemia) [µM] | TGI (SF-268 CNS) [µM] | TGI (SF-539 CNS) [µM] |
| --- | --- | --- | --- | --- | --- | --- | --- | --- | --- | --- | --- |
| CC(C)(C)OC(=O)NCC(c1c[nH]c2cc(Br)ccc12)c1c[nH]c2cc(Br)ccc12 | 33.5 | 46.4 | 33.5 | 34.4 | 34.5 | 32.7 | 31.4 | 36.5 | > 100 | 31.7 | 38 |
| Cc1ccc2c(ccc3ncc(CNc4ccc(NS(C)(=O)=O)cc4)c32)[nH]1 | 39.4 | 59.9 | 93.6 | 32.1 | 55.6 | 35.5 | 53.8 | 81.1 | 41.3 | 52.5 | 50.5 |
| NS(=O)(=O)c1ccc(N=Nc2ccc(O)cc2)cc1 | > 100 | > 100 | > 100 | > 100 | 89.1 | > 100 | > 100 | > 100 | > 100 | > 100 | > 100 |
| CN1/C(=C\N=O)C(C)(C)N(O)C1(C)C | > 100 | > 100 | > 100 | > 100 | > 100 | > 100 | > 100 | > 100 | > 100 | > 100 | > 100 |
| NC1=Nc2ccccc2Sc2nccn21 | 57.9 | 79.1 | 65.1 | 59.7 | 48.1 | 44.3 | > 100 | > 100 | 44.5 | 88.4 | 56.1 |
| Cc1ccc(C(=O)C2C=C(c3ccc(C)cc3)SC3C=CCC32)cc1 (stereo not given) | 38.3 | 73.8 | 43.1 | 32.3 | 66.1 | 29.6 | 44.4 | 32.3 | 80.1 | – | 32.2 |
| Cn1c2ccccc2c2c3c(c4c5ccccc5n(C)c4c21)C(=O)N(Cc1ccccc1)C3=O | > 100 | > 100 | > 100 | > 100 | > 100 | > 100 | > 100 | > 100 | > 100 | – | > 100 |
| O=C1NCN(c2ccccc2)C12CCN(CCCN1CCN(CCOC(c3ccccc3)c3ccccc3)CC1)CC2 | 2.31 | 7.97 | 4.22 | 2.12 | 7.35 | 4.66 | 10.1 | 6.51 | 5.23 | 5.77 | 2.48 |
| CCOc1cc2c(cc1O)C=C[C@@H]1[C@@H]2CC[C@]2(C)[C@@H](O)CC[C@@H]12 | > 43.4 | > 100 | 24.3 | > 100 | 56.9 | 7.3 | > 100 | > 62.4 | > 100 | > 100 | 7.03 |
| O=P(O)(O)c1ccc2c(c1)OCCOCCOCCOCCO2 | > 100 | > 100 | > 100 | > 100 | > 100 | > 100 | – | > 100 | > 100 | > 100 | > 100 |
| COP(=O)(/C=C/C(NC(=O)C(Cl)(Cl)Cl)c1ccccc1)OC (stereo not given) | > 100 | > 100 | > 100 | > 100 | > 100 | > 100 | > 100 | > 100 | > 100 | > 100 | – |
| C[C@@H](c1ccccc1)N1C[C@@H](c2ccc3c(c2)OCO3)[C@@H]2C(=O)CCC[C@@H]21 | > 100 | > 100 | > 100 | > 100 | > 100 | > 100 | > 100 | > 100 | 92.8 | > 100 | – |
| Cc1ccc(N2C=Nn3c(nc4sc5c(c4c3=O)CCCC5)C2)cc1 | > 100 | 92 | > 100 | > 100 | > 100 | > 100 | > 100 | > 100 | > 100 | > 100 | – |
| O=C(CSc1nc2ccc(I)cc2c(=O)n1Cc1ccccc1)NNC(=S)Nc1ccccc1 | > 100 | > 100 | > 100 | > 100 | > 100 | > 100 | > 100 | – | > 100 | > 100 | – |
| Cc1c(C)c(S(=O)(=O)N(CCCN)OCCCN)c(C)c2c1OC(C)(C)CC2 | 29.4 | 29.6 | 28.4 | 29.2 | 28 | 28.4 | 25.8 | 29.8 | 35.7 | 26.9 | – |
| COC(=O)[C@H](Cc1ccccc1)NC(=O)OCC1OC(n2cc(C)c(=O)[nH]c2=O)CC1N=[N+]=[N-] (stereo not given in full) | > 100 | > 100 | > 100 | > 100 | > 100 | > 100 | > 100 | > 100 | > 100 | > 100 | – |
| CCCCC1Nc2ccccc2-c2ccnc(Cl)c21 (stereo not given) | 45.2 | 32.3 | 47.6 | 54.9 | 39.9 | 29.6 | – | – | 31.9 | 89.2 | 41.8 |
